The text below walks through data of patent US20050239755A1, “External preparation for inhibiting keloid formation” (priority 2002, published 2005).

The subject of one test is human normal fibroblast. Kind of test: Test of inhibition of collagen gel shrinking (human normal fibroblast). Format: cell-based. The following applies: for Shrinking rate of collagen: after 24 hours. The protocol:
(§1) Test of Inhibition of Collagen Gel Shrinking. A collagen solution (1.5 mg/mL) (1 mL) and a suspension of human normal fibroblast or human fibroblast derived from keloid (1×10^5 cells) (1 mL) were added to a Petri dish (diameter; 35 mm) and mixed. The mixture was warmed for about 10 minutes in an incubator (37° C., 5% CO2) to prepare collagen gel. Further broth (1 mL) was added over thereon and was left for about 3 hours in the incubator (37° C., 5% CO2). The collagen gel was released from the Petri dish, and thereto was added a solution containing acetylsalicylic acid (its final concentration was respectively 0, 0.05, 0.5, 5, and 50 μM). The suspension was cultured in the incubator (37° C., 5% CO2) and after 24 hours the shrinking rate was evaluated.

Test [1] deals with human fibroblast derived from keloid. The test is described as follows: Test of inhibition of collagen gel shrinking (human fibroblast derived from keloid). Format: cell-based. The following applies: for Shrinking rate: after 24 hours. The protocol:
as §1

In the case of `CC(=O)Oc1ccccc1C(=O)O` [Acetylsalicylic acid], the “shrinking of collagen (in words)” value (in the test on human normal fibroblast (Table 9); in test [1] (Table 10)) was “inhibited” each time. The “Shrinking rate of collagen” value in the test on human normal fibroblast (acetylsalicylic acid 0.05 μM) turned out to be 23%; in the test on human normal fibroblast (acetylsalicylic acid 0.5 μM), 12%; with human normal fibroblast (acetylsalicylic acid 5 μM) it was 10%; with human normal fibroblast (acetylsalicylic acid 50 μM), 14%. Besides, the Shrinking rate turned out to be 21% in test [1] (acetylsalicylic acid 0.05 μM), 19% in test [1] (acetylsalicylic acid 0.5 μM), 24% in test [1] (acetylsalicylic acid 5 μM) and 20% in test [1] (acetylsalicylic acid 50 μM).
